According to patent US20100189695A1, “IRAK-1 AS REGULATOR OF DISEASES AND DISORDERS” (priority 2008, published 2010):
No end group written: not given here.

Tests used:
BMDM cells = test: Intracellular ROS by DCFDA staining after LPS stimulation; assay type: cell-based, mouse; conditions: wild type macrophages, LPS 100 ng/ml, 15 minutes or 16 hours
Experimental: (§1) To determine if IRAK-1 is required for LPS-induced activation of Rac1, either wild type or IRAK-1 deficient macrophages were treated with LPS (100 ng/ml).
Intracellular ROS levels were measured by DCFDA staining using fluorescence microscope after LPS (100 ng/ml) stimulation in WT and IRAK1^−/− BMDM cells for 15 min.

Rac1 = Rac1 activity by PBD pull down assay after LPS stimulation; assay type: cell-based, mouse; conditions: LPS 100 ng/ml, 5 min
Experimental: as §1
Rac1 activity was determined using the PBD pull down assay following LPS stimulation (100 ng/ml) for 5 min in WT and IRAK1^−/− BMDM cells followed by immunoblotting with an anti-Rac1 antibody. […] The bar graphs are densitometric analyses of the active Rac1 specific bands from three independent experiments.

C/EBPδ = test: LPS-induced C/EBPδ expression, Western blot in macrophages; assay type: cell-based; conditions: LPS two hours
Experimental: To determine if IRAK-1 is involved in LPS-induced C/EBPδ expression, either wild type or IRAK-1 deficient macrophages were treated with LPS for two hours. […] Either β-actin or lamin-B proteins were used as controls.

RARα = RARα levels in BMDMs after LPS, Western blot and real time RT-PCR; assay type: cell-based, mouse; conditions: for nuclear RARα protein level: 100 ng/ml LPS
Experimental: To determine if IRAK-1 is involved in the nuclear translocation of RARα, the levels of RARα were determined in wild type and IRAK-1 deficient macrophages in the presence and absence of LPS (FIG. 9). […] When experiments are performed in a IRAK-1 deficient background, RARα is not suppressed (lanes 5-8). As expected, when a wild type background is used, IRAK-1 suppression can be seen (lanes 1 and 2).
WT and IRAK-1^−/−. BMDMs were treated with 100 ng/ml LPS for 2 h followed by nuclear protein extraction. The samples were analyzed by immunoblotting using the indicated antibodies. LaminB was used as the loading control. Panel B: the BMDMs derived from WT and IRAK-1^−/− mice were treated with LPS for 2 h followed by RNA extraction. The resulting cDNAs were used to detect RARα transcript levels by real time RT-PCR and standardized against GAPDH levels. Panel C: WT BMDMs were treated with 100 ng/ml LPS for 2 h followed by whole cell protein extraction. The samples were resolved by SDS-PAGE followed by immunoblotting with anti-RARα antibodies. Panel D: BMDM cells derived from WT mice were either untreated or treated with Leptomycin B (LepB) alone or in the presence of LPS. After 2 h incubation, nuclear lysates were prepared and subjected to SDS-PAGE followed by Western blot analysis with RARα specific antibodies. The blots were also probed with LaminB-specific antibodies as a loading control. ns=non-specific.

PPARα = PPARα protein after LPS, Western blot; assay type: cell-based; conditions: IRAK-1 deficient cells, LPS vs Control
Excerpt: It was of interest to determine if the transcription factor PPARα is also regulated by IRAK-1.

LXRα = LXRα protein after LPS, Western blot; assay type: cell-based
Excerpt: The transcriptional factor LXRα was also thought to be a potential target of IRAK-1 suppression. FIG. 14 illustrates Western blot analysis of the LXRα protein in the presence and absence of IRAK-1. Suppression of LXRα can be seen in the wild type cells (lanes 1 and 2).

PGC1α = PGC1α protein after LPS, Western blot; assay type: cell-based; conditions: LPS vs Control
Experimental: The ability of IRAK-1 to regulate the transcription factor PGC1α was determined in this set of experiments. PGC1α was detected by Western blot analysis in either wild type or IRAK-1 deficient cells in the presence or absence of LPS (FIG. 15).

NOX-1 = NOX-1 expression after LPS in BMDM cells; assay type: cell-based, mouse
Experimental: To determine if IRAK-1 was involved in the regulation of inflammatory mediator NOX-1, the levels of NOX-1 were determined in wild type and IRAK-1 deficient macrophages in the presence and absence of LPS (FIG. 16).
Panel A: Effect of LPS on NOX-1 expression in WT and IRAK1^−/− BMDM cells. The cells were stimulated with LPS (100 ng/ml) for 2 h. After stimulation, total RNA was prepared using Trizol reagent followed by reverse transcription and the mRNA levels of NOX-1 were analyzed using real-time RT-PCR. Each data point represents the mean+/−standard deviation of at least three independent experiments. *P<0.05, compared with control. Panel B: The protein levels of NOX-1 were analyzed after LPS stimulation in WT and IRAK1^−/− BMDM cells by Western blot using an anti-NOX-1 antibody. The same blots were probed with β-actin as the loading control. Panel C: Chromatin immunoprecipitation analyses were performed to determine LPS-inducible recruitment of C/EBPδ to the promoter region of NOX-1. In contrast, LPS cannot induce C/EBPδ binding to the promoter region of NOX-1 in IRAK-1 deficient macrophages.

MCP-1 = MCP-1 message and protein after LPS in macrophages, real-time PCR and ELISA; assay type: cell-based; conditions: wild-type cells, LPS stimulation
Experimental: To investigate the possible role of IRAK-1 in control of MCP-1 expression, experiments were performed to assess the level of MCP-1 produced via LPS stimulation. It was postulated that IRAK-1 regulates the expression of MCP-1 through interaction of IRAK-1 with C/EBPδ. To assess this possible interaction, MCP-1 mRNA levels were determined in both wild-type cells and IRAK^−/− cells in the presence and absence of LPS. The results are depicted graphically in FIG. 17.
As shown in the figure, the levels of MCP-1 message (left panel) and protein (right panel) in wild type and IRAK-1 deficient macrophages following LPS stimulation was measured by real-time PCR analyses (left panel) and ELISA (right panel). […] The data fully support a role for IRAK-1 in control of expression of MCP-1 transcription through control of C/EBPδ.

Tau = Tau phosphorylation (PHF-Tau) after BLP (Pam3CSK4) in bone marrow derived macrophages, Western blot; assay type: cell-based, mouse
Experimental: Because Tau phosphorylation is increased in aged human brains and contributes to the pathogenesis of various neurological diseases, such as Alzheimer's and Parkinson's diseases, studies were performed to ask whether the increased levels of full-length IRAK-1 can contribute to Tau phosphorylation. In order to answer this question, a transgenic mouse model known in the art was used. According to this study, either wild type or IRAK-1 deficient bone marrow derived macrophages were treated with BLP (Pam3CSK4) for various times, as indicated in FIGS. 4 and 5. The levels of phosphorylated Tau (PHF-Tau) were detected through Western Blot using anti-phosphorylated Tau antibody.

ABCA1 = ABCA1 induction by ATRA in BMDMs, real time RT-PCR; assay type: cell-based, mouse; conditions: IRAK1−/− vs WT BMDMs, 50 nM ATRA, 6 h
Experimental: WT and IRAK1^−/− BMDM cells were either untreated or treated with ATRA (50 nM) followed by Western blot analysis of cell extracts using ABCA1 specific antibodies. Antibodies against β-actin were used as the internal loading control. Panel B: the band intensities were quantitated using the Fujifilm Multi Gauge software and the fold induction is depicted after normalization against β-actin levels. Panel C: IRAK-1 expression was knocked-down using IRAK-1 specific siRNA (IRAK1). Wild type macrophages treated with either control siRNA or IRAK-1 specific siRNA were stimulated with 50 nM ATRA for 6 hrs. The levels of ABCA1 protein were determined by Western blot using anti-ABCA1 antibody. The levels of beta-actin were probed and served as equal loading controls. The levels of IRAK-1 were probed to make efficient knock-down with the IRAK-1 specific siRNA treatment. […] The cells were […] either untreated or treated with 50 nM ATRA for 6 h and the expression of ABCA1 and ABCG1 transcripts were measured by real time RT-PCR assays and standardized against GAPDH levels.

For lipopolysaccharide [LPS], which “reactive oxygen species levels” value (BMDM cells) is on record?
The value was “induced significantly higher levels of reactive oxygen species”.

And the “activation of Rac1” value (Rac1; IRAK-1 deficient macrophages)?
The value was “No induction was seen”.

What about the “relative Rac1 activity” value (Rac1; wild type macrophages) of the same compound?
Its value is “significantly higher”.

And the C/EBPδ expression (C/EBPδ; IRAK-1 deficient macrophages)?
Its C/EBPδ expression is “no induction”.

And the C/EBPδ expression (C/EBPδ; wild type macrophages)?
The C/EBPδ expression was “induction”.

What about the “nuclear RARα protein level” value (RARα; IRAK-1 deficient BMDMs, 2 h) of the same compound?
Its value is “no significant suppression”.

What about the “nuclear RARα protein level” value (RARα; wild type BMDMs, 2 h) of the same compound?
Its value is “suppression of RARα protein”.

What about the “RARα relative transcript levels” value (RARα; wild type and IRAK-1 deficient BMDMs, LPS 2 h, standardized against GAPDH) of the same compound?
Its value is “approximately equal”.

And the PPARα protein (PPARα)?
The PPARα protein was “PPARα was seen in both the Control and LPS samples”.

What about the “amount of LXRα in the presence or absence of LPS” value (LXRα; IRAK-1 deficient cells) of the same compound?
Its value is “approximately the same”.

And the “amount of LXRα without LPS induction relative to LPS-induced cells” value (LXRα; wild type cells)?
Its value is “four times”.

And the PGC1α protein (PGC1α; IRAK-1 deficient cells)?
Its PGC1α protein is “did not show the LPS-induced suppression”.

And the PGC1α protein (PGC1α; wild type cells)?
Its PGC1α protein is “much less of the PGC1α protein”.

What about the NOX-1 protein (NOX-1; IRAK-1 deficient cells) of the same compound?
The NOX-1 protein was “Induction was seen to a lesser extent”.

And the NOX-1 protein (NOX-1; wild type macrophage cells)?
Its NOX-1 protein is “LPS-induction of NOX-1”.

And the “MCP-1 transcription and protein expression” value (MCP-1)?
The value was “significant increase in induction of MCP-1 transcription and protein expression”.

For `CCC(=C/[C@H](C)C/C=C/C(C)=C/[C@@H](C)C(=O)[C@@H](C)[C@H](O)[C@@H](C)C/C(C)=C/C(=O)O)/C=C/[C@@H]1OC(=O)C=C[C@@H]1C` [LepB, Leptomycin B], which “LPS-induced suppression of nuclear RARα in the presence of LepB” value (RARα; wild type BMDM, LepB with LPS, 2 h) is on record?
The value was “RARα suppression by IRAK-1 is not seen”.

For “Triacylated Cys-Ser-Lys-Lys-Lys-Lys (CSKKKK; not fully specified (residue 1, N-terminus); printed as Triacylated Cys-Ser-Lys-Lys-Lys-Lys) [Pam3CSK4]”, which Tau phosphorylation (Tau; IRAK-1 deficient bone marrow derived macrophages) is on record?
Its Tau phosphorylation is “Tau phosphorylation is ablated”.

And the Tau phosphorylation (Tau; wild type bone marrow derived macrophages)?
The Tau phosphorylation was “led to increased Tau phosphorylation”.

For `CC1=C(/C=C/C(C)=C/C=C/C(C)=C/C(=O)O)C(C)(C)CCC1` [ATRA, all trans retinoic acid], which “ABCA1 mRNA induction” value (ABCA1) is on record?
The value was “higher induction of ABCA1 mRNA”.
